Experimental data as given in patent US20250041303A1, “COMBINATION THERAPY FOR CANCER TREATMENT” (INSTITUTE FOR CANCER RESEARCH D/B/A THE RESEARCH INSTITUTE …, priority 2021, published 2025).

Legend:
[1] = tested on: A1847 and SUM159 parental and degrader-resistant cells; experiment: CellTiter-Glo cell viability, parental vs degrader-resistant cells
[2] = molecular target: T1, MDR1 (Homo sapiens, UniProt P08183); experiment: Rhodamine 123 efflux assay in degrader-resistant cells; type: cell-based; set-up: endogenous in cells; host or cells: A1847 parental, dBET6-R, Thal-R; SUM159 parental, MZ1-R; settings: 2 μM
Experimental: (§1) Efflux assay was performed according to manufacturer's protocol (Millipore Sigma #ECM910). Cells were resuspended in cold efflux buffer and incubated with Rhodamine 123 for 1 hour on ice. Cells were centrifuged and treated in warm efflux buffer with DMSO or drug for 30-60 minutes, washed with cold PBS, and effluxed dye was quantified with a plate reader at an excitation wavelength of 485 nm and an emission wavelength of 530 nm.

[3] = molecular target: T2, BRD4 (BET proteins) (Homo sapiens, UniProt O60885); experiment: Western blot of BET protein/BRD4 degradation in DLD-1 cells; type: cell-based; settings: 4 hours; for dBET6-mediated degradation of BRD4 on combined treatment: increasing doses of dBET6 plus the compound at 2 μM
T2 construct: endogenous in cells; host or cells: DLD-1
Experimental: (§2) Samples were harvested in MIB lysis buffer (50 mM HEPES (pH 7.5), 0.5% Triton X-100, 150 mM NaCl, 1 mM EDTA, 1 mM EGTA, 10 mM sodium fluoride, 2.5 mM sodium orthovanadate, 1× protease inhibitor cocktail (Roche), and 1% each of phosphatase inhibitor cocktails 2 and 3 (Sigma)). Particulate was removed by centrifugation of lysates at 21,000 rpm for 15 minutes at 4° C. Lysates were subjected to SDS-PAGE chromatography and transferred to PVDF membranes before western blotting with primary antibodies. […] Secondary HRP-anti-rabbit and HRP-anti-mouse were obtained from ThermoFisher Scientific. SuperSignal West Pico and Femto Chemiluminescent Substrates (Thermo) were used to visualize blots.

[4] = tested on: DLD-1 cells; experiment: Colony formation assay (14 days) in DLD-1 cells; settings: for colony formation on co-treatment with dBET6: dBET6 0.1 μM plus the compound at 2 μM, 14-day period
[5] = tested on: K-ras mutant CRC cell lines (LS1034, LS513, SW948, SW1463, SKCO1, NCIH747, SW620); experiment: Cell viability (CellTiter-Glo) and colony formation of K-ras mutant CRC cell lines; settings: escalating doses 5 days (viability); 1 μM 14 days (colony formation)
[6] = tested on: MEK1/2; experiment: Western blot of MEK1/2 degradation and ERK1/2 phosphorylation in LS513 cells; type: cell-based; settings: LS513 (MDR1-overexpressing) vs SKCO1; escalating doses, 4 hours
Experimental: as §2

[7] = tested on: MEK1/2; experiment: Western blot of MEK1/2 degrader target in DLD-1 cells; type: cell-based; settings: 1 μM, 24 hours
[8] = tested on: A1847 or SUM159 cells; experiment: Colony formation assay (14 days, crystal violet); settings: SUM159 cells expressing Flag-MDR1, MZ1 0.1 μM, with or without tariquidar 0.1 μM
[9] = tested on: BET proteins (BRD2, BRD3 or BRD4); experiment: Western blot of BET protein degradation, parental vs degrader-resistant cells; type: cell-based; settings: for degradation of BET proteins by escalating doses: 0-10 μM, 24 hours
Experimental: as §2

[10] = tested on: OVCAR3, HCT116, and MOLT4 cells; experiment: CellTiter-Glo cell viability, parental vs MZ1 chronically exposed cells; settings: 5 days
[11] = tested on: MDR1 (ABCB1); experiment: Single-run proteomics (LC-MS/MS, label-free quantitation) of degrader-resistant cells; type: cell-based, human
Experimental: To determine changes in cells chronically exposed to BET or CDK9 PROTACs, we performed single-run proteome analysis as previously described (Lai et al., Front. Oncol., 2020, 10, 2336). Briefly, WT or PROTAC-R cells were lysed in 50 mM HEPES pH 8.0+4% SDS, and 100 μg of proteins were digested using LysC and trypsin. Digested peptides were isolated using C-18 and PGC columns, then dried and cleaned with ethyl acetate. Three […] peptides were analyzed using LC-MS/MS. MaxQuant normalized LFQ values were imported into Perseus software (1.6.2.3) and filtered in the following manner: kinases identified by site only were removed, reverse, or potential contaminant were removed then filtered for kinases identified by >1 unique peptide. Protein LFQ values were log 2 transformed, filtered for a minimum valid number of 3, normalized using Z-scores, annotated, and subjected to a Student's t-test with comparing […]. […]
Proteolytic peptides were resuspended in 0.1% formic acid and separated with a Thermo Scientific RSLC nano Ultimate 3000 LC on a Thermo Scientific Easy-Spray C18 PepMap 75 μm×50 cm C-18 2 μm column. […] Eluted peptides were analyzed by Thermo Scientific Q Exactive or Q Exactive plus mass spectrometers utilizing a top 15 methodology in which the 15 most intense peptide precursor ions were subjected to fragmentation. […]
Raw data analysis of LFQ experiments was performed using MaxQuant software 1.6.1.0 and searched using Andromeda 1.5.6.0 against the Swiss-Prot human protein database (downloaded on Apr. 24, 2019, 20402 entries). […] LFQ quantitation was performed using MaxQuant with the following parameters; LFQ minimum ratio count: Global parameters for protein quantitation were as follows: label minimum ratio count: 1, peptides used for quantitation: unique, only use modified proteins selected and with normalized average ratio estimation selected. Match between runs was employed for LFQ quantitation and the significance threshold of the ion score was calculated based on a false discovery rate of <1%.

[12] = tested on: ABCB1 (MDR1); experiment: ABCB1 expression and MDR1 protein by qRT-PCR and immunoblot after chronic MZ1 exposure; type: cell-based
Experimental: GeneJET RNA purification kit (Thermo Scientific) was used to isolate RNA from cells according to manufacturer's instructions. qRT-PCR on diluted cDNA was performed with inventoried TaqMan® Gene Expression Assays on the Applied Biosystems 7500 Fast Real-Time PCR System. The TaqMan Gene Expression Assay probes (ThermoFisher Scientific) used to assess changes in gene expression include ABCB1 (Assay ID: Hsxxxx), and ACTB (control) (Assay ID: Hsxxxx).

[13] = tested on: HCT-15, DLD-1 and CAKI-1 cells (MDR1 overexpressing); experiment: CellTiter-Glo cell viability of MDR1 overexpressing vs low MDR1 cancer cell lines; settings: HCT-15, DLD-1, CAKI-1 vs A1847, SUM159, MOLT4; escalating doses, 5 days
[14] = molecular target: T1, MDR1; experiment: Rhodamine 123 efflux assay in DLD-1 cells; type: cell-based; set-up: endogenous in cells; settings: 2 μM
Experimental: as §1

[15] = tested on: A1847 dBET6-R or Thal-R cells; experiment: Apoptosis by western blot in degrader-resistant A1847 cells; type: cell-based; settings: 2 μM, 4 hours
Experimental: as §2

[16] = molecular target: T3, CDK9 (Homo sapiens, UniProt P50750); experiment: Western blot of CDK9 degradation, A1847 parental vs Thal-R cells; type: cell-based; settings: A1847 Thal-R vs parental; 2 μM, 4 hours
Experimental: as §2

[17] = molecular target: T3, CDK9; experiment: Western blot of CDK9 degradation in DLD-1 cells; type: cell-based; set-up: endogenous in cells; host or cells: DLD-1; settings: DLD-1; increasing doses of Thal SNS 032 plus the compound at 2 μM, 4 hours
Experimental: as §2

[18] = A1847 parental vs chronically exposed cells, escalating doses, 5 days

T1 sequence (P08183 whole entry): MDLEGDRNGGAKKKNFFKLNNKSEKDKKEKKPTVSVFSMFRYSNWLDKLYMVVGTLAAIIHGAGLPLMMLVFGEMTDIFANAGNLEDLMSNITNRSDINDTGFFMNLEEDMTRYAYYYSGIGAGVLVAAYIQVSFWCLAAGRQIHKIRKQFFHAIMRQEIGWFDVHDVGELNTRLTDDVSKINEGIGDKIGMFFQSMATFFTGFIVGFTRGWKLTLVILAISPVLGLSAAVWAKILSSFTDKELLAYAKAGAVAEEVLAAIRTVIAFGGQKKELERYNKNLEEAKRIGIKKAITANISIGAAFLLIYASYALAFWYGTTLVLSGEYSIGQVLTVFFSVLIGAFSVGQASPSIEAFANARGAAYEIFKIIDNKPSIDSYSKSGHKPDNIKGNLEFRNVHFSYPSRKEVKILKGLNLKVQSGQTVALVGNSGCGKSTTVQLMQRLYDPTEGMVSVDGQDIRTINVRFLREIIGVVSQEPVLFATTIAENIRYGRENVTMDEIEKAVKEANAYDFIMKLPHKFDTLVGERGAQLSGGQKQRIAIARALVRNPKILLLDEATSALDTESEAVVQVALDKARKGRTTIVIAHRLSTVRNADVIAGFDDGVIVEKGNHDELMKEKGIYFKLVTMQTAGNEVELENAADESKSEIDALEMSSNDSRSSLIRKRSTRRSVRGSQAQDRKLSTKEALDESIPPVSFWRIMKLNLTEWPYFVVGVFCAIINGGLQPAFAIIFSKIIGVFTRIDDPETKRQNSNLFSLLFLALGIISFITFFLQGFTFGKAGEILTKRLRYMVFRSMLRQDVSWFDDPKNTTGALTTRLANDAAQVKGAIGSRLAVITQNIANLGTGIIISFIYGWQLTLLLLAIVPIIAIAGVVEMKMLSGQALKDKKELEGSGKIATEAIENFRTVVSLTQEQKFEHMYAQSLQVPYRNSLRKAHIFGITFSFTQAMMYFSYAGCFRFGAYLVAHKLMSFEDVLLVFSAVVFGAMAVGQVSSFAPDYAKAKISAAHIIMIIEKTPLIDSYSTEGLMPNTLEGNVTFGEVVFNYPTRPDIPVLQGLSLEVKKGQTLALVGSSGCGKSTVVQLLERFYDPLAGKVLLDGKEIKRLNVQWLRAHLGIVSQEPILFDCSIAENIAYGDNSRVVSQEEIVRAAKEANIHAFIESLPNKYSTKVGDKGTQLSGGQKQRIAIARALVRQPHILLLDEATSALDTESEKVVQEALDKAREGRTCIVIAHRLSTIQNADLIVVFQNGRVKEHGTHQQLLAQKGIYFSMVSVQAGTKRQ
T3 sequence (P50750 whole entry): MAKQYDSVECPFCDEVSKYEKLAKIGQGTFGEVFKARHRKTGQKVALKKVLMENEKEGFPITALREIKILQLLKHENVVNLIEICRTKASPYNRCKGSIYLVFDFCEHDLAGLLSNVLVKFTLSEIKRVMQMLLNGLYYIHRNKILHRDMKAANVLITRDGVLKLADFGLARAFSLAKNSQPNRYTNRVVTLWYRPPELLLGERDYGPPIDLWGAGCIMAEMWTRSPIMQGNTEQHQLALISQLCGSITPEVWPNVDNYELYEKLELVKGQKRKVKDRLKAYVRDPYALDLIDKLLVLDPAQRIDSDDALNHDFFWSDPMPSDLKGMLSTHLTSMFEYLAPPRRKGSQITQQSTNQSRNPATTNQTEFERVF
T3 sequence (O60563 whole entry partner): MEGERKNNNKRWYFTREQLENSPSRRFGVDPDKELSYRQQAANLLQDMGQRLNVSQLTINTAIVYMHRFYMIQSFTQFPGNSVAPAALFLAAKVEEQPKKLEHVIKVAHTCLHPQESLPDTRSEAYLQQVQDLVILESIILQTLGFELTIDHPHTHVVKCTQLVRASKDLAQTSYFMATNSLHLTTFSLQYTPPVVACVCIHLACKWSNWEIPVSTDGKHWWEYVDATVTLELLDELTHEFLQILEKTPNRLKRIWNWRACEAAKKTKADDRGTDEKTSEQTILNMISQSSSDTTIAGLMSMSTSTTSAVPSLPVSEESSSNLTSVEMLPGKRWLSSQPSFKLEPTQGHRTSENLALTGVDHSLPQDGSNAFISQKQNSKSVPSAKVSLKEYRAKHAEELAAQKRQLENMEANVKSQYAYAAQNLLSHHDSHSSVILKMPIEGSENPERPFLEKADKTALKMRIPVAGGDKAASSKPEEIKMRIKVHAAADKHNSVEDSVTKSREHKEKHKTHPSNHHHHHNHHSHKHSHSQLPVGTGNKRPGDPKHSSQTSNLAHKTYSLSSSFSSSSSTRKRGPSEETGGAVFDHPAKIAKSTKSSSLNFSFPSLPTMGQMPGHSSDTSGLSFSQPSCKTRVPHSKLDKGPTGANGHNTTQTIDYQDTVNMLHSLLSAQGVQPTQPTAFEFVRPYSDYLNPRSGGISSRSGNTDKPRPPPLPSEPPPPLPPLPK

For Cc1sc2c(c1C)C(c1ccc(Cl)cc1)=N[C@@H](CC(=O)OC(C)(C)C)c1nnc(C)n1-2 [JQ1], the “sensitization to tariquidar after chronic exposure” value ([1]; A1847 JQ1-R vs parental and dBET6-R cells) was “did not cause sensitization to tariquidar”.
COc1ccc(-c2ccc3c(N4CCOCC4)nc(N4C[C@@H](C)O[C@@H](C)C4)nc3n2)cc1CO [KU-0063794] was tested, and the “MDR1 drug efflux activity (Rhodamine 123 efflux)” value (shortened to “MDR1 drug efflux activity”) ([2]; A1847 Thal-R cells) was “does not reduce MDR1 drug efflux activity”, the “dBET6-mediated degradation of BRD4 on combined treatment” value [3] was “failed to improve degradation of BRD4” and the “colony formation, single agent” value ([4]; 2 μM, 14 days) was “completely repressed colony formation”. For the same molecule, the “colony formation on co-treatment with dBET6” value [4] was “did not improve growth inhibition”.
Cc1ncsc1-c1ccc([C@H](C)NC(=O)[C@@H]2C[C@@H](O)CN2C(=O)[C@@H](NC(=O)CCCCCCCCCCNCCCONC(=O)c2ccc(F)c(F)c2Nc2ccc(I)cc2F)C(C)(C)C)cc1 [MS432] was tested, and the “resistance of MDR1 overexpressing vs MDR1 low expressing CRC cell lines” value [5] was “more resistant”, the “MEK1 or MEK2 protein levels, ERK1/2 phosphorylation, apoptosis” value [6] was “did not reduce MEKI or MEK2 protein levels, inhibit ERK1/2 phosphorylation or induce apoptosis” and the “protein reduction on co-treatment with tariquidar” value [7] was “improved the protein reduction relative to single agent therapies”.
With Cc1ncsc1-c1ccc(CNC(=O)[C@@H]2C[C@@H](O)CN2C(=O)[C@@H](NC(=O)COCCOCCOCCNC(=O)C[C@@H]2N=C(c3ccc(Cl)cc3)c3c(sc(C)c3C)-n3c(C)nnc32)C(C)(C)C)cc1 [MZ1] the “colony formation with forced expression of Flag-MDR1” value [8] was “rescued colony formation growth”, the “degradation of BET proteins by escalating doses” value ([9]; A1847 parental vs chronically exposed cells) was “less effective at inducing degradation of BET proteins” and the “degradation of BET proteins by escalating doses” value ([9]; SUM159 parental vs MZ1-R cells) was “less effective at inducing degradation of BET proteins”. For the same molecule, the “acquired resistance (cell viability dose-response)” value [1, 18] was “acquire resistance”, the “acquired resistance (cell viability dose-response)” value ([1]; SUM159 parental vs chronically exposed (MZ1-R) cells, 5 days) was “resulted in degrader-resistance” and the “sensitivity after chronic exposure (cell viability)” value ([10]; MOLT4 parental or MZ1-R cells) was “retain sensitivity”. The “acquired resistance (cell viability)” value ([10]; OVCAR3 and HCT116, chronic exposure) was “acquired resistance”, the “MDR1 protein levels upregulated relative to parental cell lines by LFQ analysis” value ([11]; A1847 cells chronically exposed to the degrader (degrader-R) vs parental) was 5-5 fold and the “MDR1 protein increase compared to parental cells (proteomics)” value ([11]; SUM159 MZ1-R cells vs parental) was roughly 4.5 fold. For the same molecule, the “ABCB1 expression after chronic exposure” value ([12]; MOLT4 cells) was “do not induce ABCB1 expression”, the “MDR1 mRNA and protein levels after chronic exposure” value ([12]; OVCAR3 and HCT116 MZ1-R cells) was “elevated MDR1 mRNA and protein levels” and the “cell viability of MDR1 overexpressing cells” value [13] was “did not reduce cell viability to the extent of cancer cell lines expressing low or no detectable MDR1 protein”.
For CO[C@H]1C[C@@H]2CC[C@@H](C)[C@@](O)(O2)C(=O)C(=O)N2CCCC[C@H]2C(=O)O[C@H]([C@H](C)C[C@@H]2CC[C@@H](OCCO)[C@H](OC)C2)CC(=O)[C@H](C)/C=C(\C)[C@@H](O)[C@@H](OC)C(=O)[C@H](C)C[C@H](C)/C=C/C=C/C=C/1C [RAD001, Everolimus], the “MDR1 drug efflux activity” value [14] was “reduced MDR1 drug efflux activity similar to tariquidar-treatment”, the “apoptosis in degrader-resistant cell lines” value [15] was “resulted in apoptosis similar to tariquidar treatment” and the “degradation of BET proteins in degrader-resistant cell lines” value ([9]; A1847 dBET6-R or MZ1-R vs parental, 2 μM, 4 hours) was “resulted in degradation of BET proteins”. For the same molecule, the “sensitivity of degrader-resistant cells vs parental cells (cell viability)” value ([1]; increasing concentrations, A1847 dBET6-R, Thal-R, MZ1-R and SUM159 MZ1-R) was “more sensitive”, the “degradation of CDK9 in degrader-resistant cell lines” value [16] was “resulted in degradation of BET proteins (FIG. 5, Panel G; FIG. 12, Panels E and F) or CDK9” and the “MDR1 drug efflux activity” value ([2]; A1847 dBET6-R or Thal-R cell lines) was “reduced MDR1 drug efflux activity similar to that observed with tariquidar”. The “degradation of CDK9 by Thal SNS 032 on combined treatment” value [17] was “improving degradation of CDK9”, the “reduction in concentrations of dBET6 required to degrade BRD4 when combined” value ([3]; combined with the compound at 2 μM) was 100 fold and the “dBET6-mediated degradation of BRD4 on combined treatment” value [3] was “improved dBET6-mediated degradation of BRD4”. The “growth inhibition of colonies on combination with Thal SNS 032” value ([4]; compound at 2 μM, 14 days) was “enhancing growth inhibition of colonies” and the “colony formation on co-treatment with dBET6” value [4] was “exhibits drug synergy”.
With CN(C)C/C=C/C(=O)Nc1cc2c(Nc3ccc(F)c(Cl)c3)ncnc2cc1O[C@H]1CCOC1 [afatinib] the “MDR1 drug efflux activity” value ([2]; A1847 Thal-R cells) was “does not reduce MDR1 drug efflux activity”.
For Cc1sc2c(c1C)C(c1ccc(Cl)cc1)=N[C@@H](CC(=O)NCCCCCCCCNC(=O)COc1cccc3c1C(=O)N(C1CCC(=O)NC1=O)C3=O)c1nnc(C)n1-2 (some centres unmarked) [dBET6], the “acquired resistance (cell viability dose-response)” value [1, 18] was “acquire resistance” and the “cell viability of MDR1 overexpressing cells” value [13] was “did not reduce cell viability to the extent of cancer cell lines expressing low or no detectable MDR1 protein”.
In the case of CC(=O)O[C@H]1C(=O)[C@@]2(C)[C@H]([C@H](OC(=O)c3ccccc3)[C@]3(O)C[C@H](OC(=O)[C@H](O)[C@@H](NC(=O)c4ccccc4)c4ccccc4)C(C)=C1C3(C)C)[C@]1(OC(C)=O)CO[C@@H]1C[C@@H]2O [paclitaxel], the “resistance to MDR1 substrate (cell viability)” value ([1]; BET protein or CDK9 degrader-resistant A1847 cells vs parental, 5 days) was “acquired resistance”.
